The source made the active and inactive calls. The rule behind the calls is not given here.
Key:
MCF7 = experiment: Cytotoxicity against human MCF7 cells assessed as growth inhibition after 72 hrs by MTT assay; format: functional, cell-based; settings: MCF7, 72 h
HeLa = experiment: Cytotoxicity against human HeLa cells assessed as growth inhibition after 72 hrs by MTT assay; format: functional, cell-based
HepG2 [1] = experiment: Cytotoxicity against human HepG2 cells assessed as growth inhibition after 72 hrs by MTT assay; format: functional, cell-based; settings: HepG2, 72 h
HCT-116 = experiment: Cytotoxicity against human HCT116 cells assessed as growth inhibition after 72 hrs by MTT assay; format: functional, cell-based; settings: HCT-116, 72 h
U-251 = experiment: Cytotoxicity against human U251 cells assessed as growth inhibition after 72 hrs by MTT assay; format: functional, cell-based; settings: U-251, 72 h
HepG2 [2] = experiment: Inhibition of vacuolar H+-ATPase in human HepG2 cells assessed as release of phosphate after 72 hrs by malachite green dye-based spectrophotometric analysis; format: cell-based
HepG2 [3] = experiment: Inhibition of vacuolar H+-ATPase in human HepG2 cells assessed as neutralization of lysosomal pH at 10 to 100 nM after 48 hrs by LysoTracker Red dye-based confocal microscopic analysis; format: cell-based

Structure (SMILES) | IC50 (MCF7) [nM] | IC50 (HeLa) [nM] | IC50 (HepG2 [1]) [nM] | IC50 (HCT-116) [nM] | IC50 (U-251) [nM] | inhibition (HepG2 [2]) | inhibition (HepG2 [3])
CC(=O)O[C@H]1C(=O)[C@@]2(C)[C@H]([C@H](OC(=O)c3ccccc3)[C@]3(O)C[C@H](OC(=O)[C@H](O)[C@@H](NC(=O)c4ccccc4)c4ccccc4)C(C)=C1C3(C)C)[C@]1(OC(C)=O)CO[C@@H]1C[C@@H]2O [PACLITAXEL] | 45 | 96 | 84 | 69 | 128 |  | 
COc1cc2c(O[C@@H]3OC[C@@H](OC)[C@H](OC)[C@H]3O)c3c(c(-c4ccc5c(c4)OCO5)c2cc1OC)C(=O)OC3 [CLEISTANTHIN] | 190 | 67 | 36 | 31 | 97 | Dose-dependent effect | Active
COc1cc2c(O[C@@H]3OC[C@@H](OC)[C@H](OC)[C@H]3O[C@@H]3O[C@H](COC(C)=O)[C@@H](OC(C)=O)[C@H](OC(C)=O)[C@H]3OC(C)=O)c3c(c(-c4ccc5c(c4)OCO5)c2cc1OC)C(=O)OC3 | 92 | 74 | 39 | 82 | 101 | Dose-dependent effect | Active
COc1cc2c(O[C@@H]3OC[C@@H](OC)[C@H](OC)[C@H]3O[C@@H]3O[C@H](CO)[C@@H](O)[C@H](O)[C@H]3O)c3c(c(-c4ccc5c(c4)OCO5)c2cc1OC)C(=O)OC3 | > 200 | > 200 | > 200 | > 200 | > 200 |  | 
